Patent US8956594B2, “Fluoride-calcium compositions, dental products, and methods for providing dental fluoride” (ADA Foundation, priority 2005, dated 2015)

Conditions: used in the absence of phosphate, in some trials
Description: The anion may be any suitable stabilizing anion, by which is contemplated to be an anion the inclusion of which results in a composition that is stable for storage and transport as against precipitation of calcium fluoride, the composition not being stable (or as stable) for storage and transport as against precipitation of calcium fluoride in the absence of the anion. In some embodiments, the anion contains the O—PO—O moiety. […] Plural anions may be employed in a single composition.

## O=P(O)(O)OP(=O)(O)O [pyrophosphate]
  effectiveness as stabilizing anion: not to be effective
